± gives the standard deviation of the averaged measurements.
Experiments:
[1] = system: HSV-1 K26-GFP infected 3D skin equivalent; assay: % activity on HSV-1 GFP signal (0 = infected DMSO control, -100 = uninfected control); higher = higher signal (negative = inhibition / toxicity); conditions: time (h post infection): 48
Method: (§1)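 Triplicate dose-response (0.04 to 10 uM) of 11 top compounds in 3D bioprinted skin equivalents (submerged and ALI models) infected with GFP-HSV-1 K26 at MOI 0.1 and fixed at 48 hpi. GFP (virus) and tdTomato (fibroblast viability) signals are normalised to per-plate controls.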

[2] = system: HSV-1 K26-GFP infected primary human skin cells; assay: % change of HSV-1 GFP signal vs untreated infected cells; higher = less antiviral inhibition
Method: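 2D primary donor-derived keratinocytes (read at 20 hpi) and donor-matched dermal fibroblasts (read at 48 hpi) infected with GFP-HSV-1 K26 at MOI 1 and treated 1 h later with compound dilutions. IncuCyte GFP integrated intensity is normalised by subtracting mock-infected wells and dividing by untreated infected wells, shown as % change (-100 = full inhibition).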

[3] = system: HSV-1 K26-GFP infected 3D skin equivalent; assay: % change of tdTomato fibroblast signal relative to infected DMSO control; higher = higher signal (negative = inhibition / toxicity); conditions: time (h post infection): 48
Method: as §1

[4] = system: HSV-1 K26-GFP infected primary human skin cells; assay: % change of HSV-1 GFP signal vs untreated infected cells; higher = less antiviral inhibition; conditions: cell type: primary dermal fibroblasts, time (h post infection): 48
Method: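 2D primary donor-derived dermal fibroblasts infected with GFP-HSV-1 K26 at MOI 1, treated 1 h later with compound dilutions and read at 48 hpi on IncuCyte. GFP integrated intensity is normalised to mock-infected and untreated infected wells (% change; -100 = full inhibition).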

Cc1cccc(C)c1N(CC(=O)Nc1ccc(-c2ncon2)cc1)C(=O)C1CCS(=O)(=O)CC1 [Amenamevir]
Conditions	% activity on HSV-1 GFP signal [%]	% change of HSV-1 GFP signal [%]	% change of tdTomato fibroblast signal [%]
[1], 0.041152 µM, model: ALI	-20.3 ± 12	–	–
[1], 0.041152 µM, model: submerged	2.22 ± 1.5	–	–
[1], 0.123457 µM, model: ALI	-40.4 ± 26	–	–
[1], 0.123457 µM, model: submerged	-17.6 ± 1.1	–	–
[1], 0.37037 µM, model: ALI	-99.3 ± 4.2	–	–
[1], 0.37037 µM, model: submerged	-61.9 ± 3.6	–	–
[1], 1.111111 µM, model: ALI	-108 ± 8.2	–	–
[1], 1.111111 µM, model: submerged	-84.6 ± 2.6	–	–
[1], 3.33333 µM, model: ALI	-107 ± 2.8	–	–
[1], 3.33333 µM, model: submerged	-89.2 ± 4.1	–	–
[1], 10 µM, model: ALI	-112 ± 4	–	–
[1], 10 µM, model: submerged	-85.3 ± 1.2	–	–
[3], 0.041152 µM, model: ALI	–	–	0.354 ± 5.1
[3], 0.041152 µM, model: submerged	–	–	12 ± 9.8
[3], 0.123457 µM, model: ALI	–	–	-2.14 ± 7.9
[3], 0.123457 µM, model: submerged	–	–	-5.09 ± 11
[3], 0.37037 µM, model: ALI	–	–	-5.49 ± 9.1
[3], 0.37037 µM, model: submerged	–	–	-8.61 ± 15
[3], 1.111111 µM, model: ALI	–	–	-6.26 ± 2.4
[3], 1.111111 µM, model: submerged	–	–	-5 ± 12
[3], 3.33333 µM, model: ALI	–	–	-5.93 ± 5.3
[3], 3.33333 µM, model: submerged	–	–	2.99 ± 13
[3], 10 µM, model: ALI	–	–	-8.92 ± 11
[3], 10 µM, model: submerged	–	–	5.91 ± 9.7
[4], 0.001 µM, donor: 3	–	-1.82 ± 12	–
[4], 0.001 µM, donor: 4	–	-1.13 ± 3.8	–
[4], 0.003 µM, donor: 3	–	-1.99 ± 14	–
[4], 0.003 µM, donor: 4	–	-8.69 ± 7.3	–
[4], 0.0091 µM, donor: 3	–	-11 ± 19	–
[4], 0.0091 µM, donor: 4	–	-24.4 ± 12	–
[4], 0.0274 µM, donor: 3	–	-15.9 ± 30	–
[4], 0.0274 µM, donor: 4	–	-37.9 ± 16	–
[4], 0.0823 µM, donor: 3	–	-29.7 ± 32	–
[4], 0.0823 µM, donor: 4	–	-61.9 ± 17	–
[4], 0.2469 µM, donor: 3	–	-63.1 ± 12	–
[4], 0.2469 µM, donor: 4	–	-76.9 ± 11	–
[4], 0.7407 µM, donor: 3	–	-89.6 ± 8.5	–
[4], 0.7407 µM, donor: 4	–	-84.4 ± 4.2	–
[4], 2.2222 µM, donor: 3	–	-98.8 ± 1.4	–
[4], 2.2222 µM, donor: 4	–	-94.5 ± 4.5	–
[4], 6.6667 µM, donor: 3	–	-99.52 ± 0.47	–
[4], 6.6667 µM, donor: 4	–	-99 ± 1.2	–
[4], 20 µM, donor: 3	–	-99.36 ± 0.81	–
[4], 20 µM, donor: 4	–	-99.59 ± 0.24	–

% change of HSV-1 GFP signal [%], [2]
Conditions	0.001 µM	0.003 µM	0.0091 µM	0.0274 µM	0.0823 µM	0.2469 µM	0.7407 µM	2.2222 µM	6.6667 µM	20 µM
cell type: primary dermal fibroblasts, donor: 5, time (h post infection): 48	-4.89 ± 1.9	-8.89 ± 6.9	-13.3 ± 9.5	-23.6 ± 18	-42.3 ± 19	-59.7 ± 17	-74.9 ± 10	-91.3 ± 2.1	-98.98 ± 0.42	-99.775 ± 0.029
cell type: primary keratinocytes, donor: 3, time (h post infection): 20	13.9 ± 7.1	12.5 ± 10	4.38 ± 14	0.743 ± 7.2	-11.4 ± 19	-38.9 ± 22	-51.9 ± 7.8	-68 ± 7.9	-78.6 ± 13	-83.4 ± 12
cell type: primary keratinocytes, donor: 4, time (h post infection): 20	-3.16 ± 10	-0.75 ± 3.6	-11.8 ± 1.4	-15.3 ± 5.3	-42.6 ± 9	-80.2 ± 16	-87.1 ± 12	-93.7 ± 7.1	-95.2 ± 3.2	-99.17 ± 0.71
cell type: primary keratinocytes, donor: 5, time (h post infection): 20	1.08 ± 1.5	2.94 ± 3	-1.03 ± 1.6	-12.8 ± 8.2	-31.3 ± 16	-49.2 ± 18	-67.5 ± 19	-93.4 ± 2.6	-97.9 ± 2.3	-99.54 ± 0.58

O=C(Nc1ccc([N+](=O)[O-])cc1Cl)c1cc(Cl)ccc1O [Niclosamide]
Conditions	% activity on HSV-1 GFP signal [%]	% change of HSV-1 GFP signal [%]	% change of tdTomato fibroblast signal [%]
[1], 0.041152 µM, model: ALI	-0.742 ± 32	–	–
[1], 0.041152 µM, model: submerged	-3.85 ± 2.1	–	–
[1], 0.123457 µM, model: ALI	-58.6 ± 25	–	–
[1], 0.123457 µM, model: submerged	-3.15 ± 5.5	–	–
[1], 0.37037 µM, model: ALI	-102 ± 3.3	–	–
[1], 0.37037 µM, model: submerged	-59.6 ± 40	–	–
[1], 1.111111 µM, model: ALI	-99.3 ± 8.7	–	–
[1], 1.111111 µM, model: submerged	-88.3 ± 8.2	–	–
[1], 3.33333 µM, model: ALI	-103 ± 18	–	–
[1], 3.33333 µM, model: submerged	-92.9 ± 5.1	–	–
[1], 10 µM, model: ALI	-98.7 ± 4.3	–	–
[1], 10 µM, model: submerged	-97.1 ± 6.4	–	–
[3], 0.041152 µM, model: ALI	–	–	8.37 ± 4.7
[3], 0.041152 µM, model: submerged	–	–	-8.01 ± 8.1
[3], 0.123457 µM, model: ALI	–	–	0.996 ± 3
[3], 0.123457 µM, model: submerged	–	–	-14.3 ± 3.6
[3], 0.37037 µM, model: ALI	–	–	-9.97 ± 6.5
[3], 0.37037 µM, model: submerged	–	–	-34 ± 7.5
[3], 1.111111 µM, model: ALI	–	–	-7.62 ± 0.92
[3], 1.111111 µM, model: submerged	–	–	-44.6 ± 5.1
[3], 3.33333 µM, model: ALI	–	–	-10.3 ± 3
[3], 3.33333 µM, model: submerged	–	–	-44.5 ± 6.2
[3], 10 µM, model: ALI	–	–	-8.58 ± 5.7
[3], 10 µM, model: submerged	–	–	-47.05 ± 0.36
[4], 0.003 µM, donor: 3	–	15.6 ± 15	–
[4], 0.003 µM, donor: 4	–	-6.77 ± 3.6	–
[4], 0.0091 µM, donor: 3	–	8.69 ± 12	–
[4], 0.0091 µM, donor: 4	–	-8.38 ± 4.5	–
[4], 0.0274 µM, donor: 3	–	9.83 ± 17	–
[4], 0.0274 µM, donor: 4	–	-13.9 ± 6.8	–
[4], 0.0823 µM, donor: 3	–	-4.14 ± 13	–
[4], 0.0823 µM, donor: 4	–	-18.7 ± 8.7	–
[4], 0.2469 µM, donor: 3	–	-45.2 ± 31	–
[4], 0.2469 µM, donor: 4	–	-48.5 ± 15	–
[4], 0.7407 µM, donor: 3	–	-76.3 ± 20	–
[4], 0.7407 µM, donor: 4	–	-63.1 ± 35	–
[4], 2.2222 µM, donor: 3	–	-89.3 ± 9.7	–
[4], 2.2222 µM, donor: 4	–	-95.5 ± 6.9	–
[4], 6.6667 µM, donor: 3	–	-99.57 ± 0.93	–
[4], 6.6667 µM, donor: 4	–	-99.828 ± 0.074	–
[4], 20 µM, donor: 3	–	-100.1 ± 0.58	–
[4], 20 µM, donor: 4	–	-99.921 ± 0.007	–
[4], 60 µM, donor: 3	–	-100.1 ± 0.63	–
[4], 60 µM, donor: 4	–	-99.98 ± 0.017	–

% change of HSV-1 GFP signal [%], [2]
Conditions	0.003 µM	0.0091 µM	0.0274 µM	0.0823 µM	0.2469 µM	0.7407 µM	2.2222 µM	6.6667 µM	20 µM	60 µM
cell type: primary dermal fibroblasts, donor: 5, time (h post infection): 48	-6.14 ± 6.4	-7.3 ± 5.1	-10.1 ± 6	-19.9 ± 5	-37 ± 9.8	-51.4 ± 16	-90 ± 7.7	-99.53 ± 0.32	-99.789 ± 0.084	-99.78 ± 0.065
cell type: primary keratinocytes, donor: 3, time (h post infection): 20	4.62 ± 16	3.94 ± 9.8	6.19 ± 16	9.78 ± 21	4.16 ± 14	0.034 ± 15	-16.7 ± 26	-24.7 ± 35	-62.7 ± 18	-81.3 ± 3.5
cell type: primary keratinocytes, donor: 4, time (h post infection): 20	-0.953 ± 16	-7.59 ± 19	-0.315 ± 5.2	-0.334 ± 8	-9.22 ± 18	-11.5 ± 12	-22.6 ± 18	-42.3 ± 1.7	-61.2 ± 40	-95.4 ± 1.5
cell type: primary keratinocytes, donor: 5, time (h post infection): 20	2.55 ± 6.4	-1.84 ± 1.7	0.0858 ± 1.5	1.91 ± 4.6	2.59 ± 1.4	-2.44 ± 8.4	-35.9 ± 49	-52.8 ± 46	-76.5 ± 22	-95.1 ± 2

Reference: the supplement of paper PMC12533247
